Experimental data as given in patent US20090105327A1, “Dibenzocycloheptane compounds and pharmaceuticals containing these compounds” (Merckle GMBH, priority 2005, published 2009).

Key:
[1] = biological target: activated p38α (Homo sapiens, UniProt Q16539); assay: Kinase assay (p38 MAP kinase assay), ATF2 phosphorylation ELISA; assay type: biochemical; details: 100 μM ATP, 10 ng activated p38α, ATF2 substrate; read-out: Inhibition of p 38 MAP kinase assay IC50
Procedure: Kinase Assay (p38 MAP Kinase Assay)
Microtiter plates were coated with 50 μl of ATF2 solution (20 μg/ml) at 37° C. for one hour. After washing with water three times, 50 μl of kinase mixture (50 mM tris-HCl 10 mM MgCl2, 10 mM β-glycerol phosphate, 10 μg/ml BSA, 1 mM DTT, 100 μM ATP, 100 μM Na3VO4, 10 ng of activated p38α) with or without inhibitor were put into the wells and incubated at 37° C. for 1 hour. After washing three times, the plates were incubated with […] at 37° C. for one hour. After washing again three times, a goat anti-rabbit IgG labeled with alkaline phosphatase was added at 37° C. for one hour (in order to retain the antibody phosphorylated protein-substrate complex). After washing three times, the alkaline phosphatase substrate solution (3 mM 4-NPP, 50 mM NaHCO3, 50 mM MgCl2, 100 μl/well) was added at 37° C. for 1.5 hours. […] The IC50 values are calculated.

[2] = system: IL-1β; assay: tissue or blood; details: Homo sapiens, 4 h, read-out: Inhibition of IL-1β (whole blood) IC50
Procedure: (§1) The compounds or compositions of the invention can be administered to a mammal (human or animal) in a dose of about 0.5 mg to 100 mg per kg of body weight per day. They can be given in a single dose or in a plurality of doses. […] Pharm. Pharm. Med. Chem. 333, Suppl. 1, 1-40, 2000.
(§2) In Vitro Test Method with Human Whole Blood
(§3) Samples of human potassium EDTA whole blood (400 μl each) are mixed with the test substance and preincubated at 37° C. in a CO2 incubator (5% CO2; 95% moisture-saturated air) for 15 min. The samples are then stimulated with 1 μg/ml LPS (E. coli 026:B6) in a CO2 incubator (5% CO2; 95% moisture-saturated air) at 37° C. for 4 hours. The reaction is stopped by placing the samples on ice, adding DPBS buffer and subsequently centrifuging at 1000.g for 15 min. The amount of IL-1β and TNFα in the plasma supernatant is then measured by means of an ELISA.

[3] = system: TNF-α; assay: tissue or blood; details: Homo sapiens, 4 h, read-out: Inhibition of TNF-α (whole blood) IC50
Procedure: as §1, §2, §3

Sequence of activated p38α (Q16539 whole entry): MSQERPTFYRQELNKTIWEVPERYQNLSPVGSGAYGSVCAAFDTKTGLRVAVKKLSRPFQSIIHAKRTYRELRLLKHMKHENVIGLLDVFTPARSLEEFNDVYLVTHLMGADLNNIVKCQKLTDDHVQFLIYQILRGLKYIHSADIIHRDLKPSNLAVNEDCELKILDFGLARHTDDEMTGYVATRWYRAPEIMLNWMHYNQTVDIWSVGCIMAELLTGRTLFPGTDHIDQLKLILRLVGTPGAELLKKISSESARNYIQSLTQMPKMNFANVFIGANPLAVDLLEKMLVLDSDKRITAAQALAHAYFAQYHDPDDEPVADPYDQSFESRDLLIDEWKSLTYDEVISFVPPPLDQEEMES

Molecule	IC50 [1]	IC50 [2]	IC50 [3]	melting point
3-(2-Amino-4-fluorophenylamino)-6,11-dihydrodibenzo[b,e]oxepin-11-one [Example 24]	38 nM			
Nc1ccccc1Nc1ccc2c(c1)SCc1ccccc1C2=O [Example 4, 3-(2-Aminoanilino)-6,11-dihydrodibenzo[b,e]thiepin-11-one]	1100 nM			
Nc1ccccc1Nc1ccc2c(c1)OCc1ccccc1C2=O [Example 5, 3-(2-Aminoanilino)-6,11-dihydrodibenzo[b,e]oxepin-11-one]	300 nM			

More lines, now with the values ahead:

IC50 [1]	IC50 [2]	IC50 [3]	melting point	Molecule
	1800 nM	2300 nM		Nc1ccccc1Nc1ccc2c(c1)CCc1ccccc1C2=O [Example 25, 2-(2-Aminophenylamino)-10,11-dihydrodibenzo[a,d]cycloheptan-5-one]
159 nM			52.5 °C	COc1ccccc1Nc1ccc2c(c1)CCc1ccccc1C2=O [Example 28, 2-(2-Methoxyphenylamino)-10,11-dihydrodibenzo[a,d]cyclohepten-5-one]
